Data: patent US20200109126A1 (priority 2017, published 2020)
Entries after “also recorded” stand apart in the source; their conditions may differ.

Assays:
μOR:N127C = molecular target: T1, μOR:N127C (Homo sapiens, UniProt P35372, N129C); test: Radioligand depletion assay, irreversible binding at μOR:N127C; conditions: wash-resistant inhibition of radioligand binding
T1 construct: expressed in transfected cells; host or cells: HEK 293

μOR [1] = molecular target: T2, μOR (Homo sapiens, UniProt P35372); test: BRET-based cAMP accumulation assay (SAR of PZM21-29); format: cell-based
μOR [2] = molecular target: T2, μOR; test: β-arrestin recruitment at μOR without GRK2; format: cell-based
C57BL/6J mice [3] = test: Conditioned place preference; conditions: mouse, in vivo
Method: On day 1 (preconditioning day), mice were placed in the central chamber and allowed to explore freely for 30 minutes. Time spent in each compartment was used to estimate baseline chamber preferences and mice showing specific chamber bias more than 70% were not studied further. On days 2-9 (conditioning days) mice were injected with either vehicle or drug and paired with either the white mesh or the black rod chambers. All mice received vehicle on days 2, 4, 6, 8 and drug on days 3, 5, 7, 9. On day 10 (test day), mice were again placed in the central chamber as on day 1 and allowed to explore freely for 30 minutes. Time spent in each chamber was expressed as percentage preference.

κOR [4] = molecular target: T3, κOR (Homo sapiens, UniProt P41145); test: Gi/o Glosensor assay at κOR; format: cell-based
T3 construct: NIMH Psychoactive Drug Screening Program (PDSP)

C57BL/6J mice [5] = test: Mouse whole body plethysmography (respiration); conditions: equianalgesic doses of PZM21, TRV130 and morphine (40 mg/kg, […], 10 mg/kg)
μOR [6] = molecular target: T2, μOR; test: β-arrestin recruitment at μOR with GRK2 co-expression; format: cell-based
κOR [7] = molecular target: T3, κOR; test: Radioligand binding at κOR (PDSP)
nociceptin receptor = molecular target: T4, nociceptin receptor (Homo sapiens, UniProt P41146); test: Gi/o Glosensor assay at nociceptin receptor; format: cell-based; conditions: ND = not detectable
T4 construct: NIMH Psychoactive Drug Screening Program (PDSP)

μOR [8] = molecular target: T2, μOR; test: cell-based; format: cell-based
μOR [9] = molecular target: T2, μOR; test: β-arrestin2 recruitment, PathHunter assay; format: cell-based

T3 sequence (P41145 whole entry): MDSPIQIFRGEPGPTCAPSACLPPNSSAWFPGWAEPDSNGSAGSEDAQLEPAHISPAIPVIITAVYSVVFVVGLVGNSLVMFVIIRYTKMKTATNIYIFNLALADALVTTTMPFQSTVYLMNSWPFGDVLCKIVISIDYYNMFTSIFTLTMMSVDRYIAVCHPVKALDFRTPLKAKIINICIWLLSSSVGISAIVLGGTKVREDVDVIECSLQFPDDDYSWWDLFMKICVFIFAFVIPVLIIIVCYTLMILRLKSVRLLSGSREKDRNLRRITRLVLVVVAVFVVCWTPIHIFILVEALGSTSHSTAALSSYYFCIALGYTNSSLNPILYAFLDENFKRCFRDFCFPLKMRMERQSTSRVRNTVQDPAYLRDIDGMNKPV
T2 sequence (P35372 whole entry): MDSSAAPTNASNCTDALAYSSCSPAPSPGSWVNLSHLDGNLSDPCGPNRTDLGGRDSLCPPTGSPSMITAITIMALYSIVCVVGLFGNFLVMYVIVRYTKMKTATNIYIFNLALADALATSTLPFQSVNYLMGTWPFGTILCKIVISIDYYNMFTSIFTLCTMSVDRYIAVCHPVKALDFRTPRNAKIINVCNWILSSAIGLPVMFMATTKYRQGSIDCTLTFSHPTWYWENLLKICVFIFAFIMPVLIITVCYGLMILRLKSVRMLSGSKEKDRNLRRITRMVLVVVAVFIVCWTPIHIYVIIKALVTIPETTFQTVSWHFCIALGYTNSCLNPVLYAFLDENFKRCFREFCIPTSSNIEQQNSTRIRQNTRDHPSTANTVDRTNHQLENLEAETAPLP
T1 sequence (P35372 whole entry N129C): as the sequence (P35372 whole entry) above, with N129C counted along it
T4 sequence (P41146 whole entry): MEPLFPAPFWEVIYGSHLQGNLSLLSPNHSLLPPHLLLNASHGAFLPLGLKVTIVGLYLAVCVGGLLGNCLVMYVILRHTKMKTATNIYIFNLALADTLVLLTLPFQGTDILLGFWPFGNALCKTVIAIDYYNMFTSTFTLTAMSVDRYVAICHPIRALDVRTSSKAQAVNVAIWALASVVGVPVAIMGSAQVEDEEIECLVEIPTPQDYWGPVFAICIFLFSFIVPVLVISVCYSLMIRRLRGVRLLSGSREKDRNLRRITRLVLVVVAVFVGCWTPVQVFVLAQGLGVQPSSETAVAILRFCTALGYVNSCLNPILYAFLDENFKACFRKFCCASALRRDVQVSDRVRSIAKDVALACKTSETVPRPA

Structure (SMILES): CN(C)[C@H](CNC(=O)NCCc1cn(CCSSCCN=[N+]=[N-])nn1)Cc1ccc(O)cc1 [PZM29, (S)-1-(2-(1-(2-((2-Azidoethyl)disulfanyl)ethyl)-1H-1,2,3-triazol-4-yl)ethyl)-3-(2-(dimethylamino)-3-(4-hydroxyphenyl)propyl)urea x CF3COOH]
- irreversible binding to μOR:N127C (μOR:N127C): binds to the μOR:N127C variant irreversibly; also recorded: binds irreversibly to this mutant
- efficacy and potency as agonist (in words) (μOR [1]): retains its efficacy as an agonist

Structure (SMILES): COc1ccsc1CNCC[C@@]1(c2ccccn2)CCOC2(CCCC2)C1 [TRV130, reference compound]
- β-arrestin2 recruitment in the absence of GRK2 (in words) (μOR [2]): no β-arrestin2 recruitment
- conditioned place preference (C57BL/6J mice [3]): not significant relative to vehicle
- KOR agonist activity (in words) (κOR [4]): activates κOR with similar potency to morphine
- respiration frequency (C57BL/6J mice [5]): significantly depresses respiration at 15 minutes
- arrestin recruitment with over-expressed GRK2 (in words) (μOR [6]): arrestin recruitment

Structure (SMILES): C[C@H](Cc1ccsc1)NC(=O)NC[C@@H](Cc1ccccc1)N(C)C [compound 12]
- Ki (κOR [7]; Ki (nM) κOR): 464 nM
- Ki (κOR [7]; κOR Ki (μM), analogs, full dose-response): 460 nM
- EC50 (nociceptin receptor): 1400 nM
- Gi/o activation, μOR agonist activity (in words) (μOR [8]): robust μOR agonist activity; also recorded: strongly activated Gi/o
- β-arrestin2 recruitment (in words) (μOR [9]): undetectable; also recorded: low levels
